Experimental data: patent publication EP0011608A1, “Novel allenic amine and acid addition salts thereof, a process for their preparation, pharmaceutical preparations comprising them and the use of these compounds in the preparation of pharmaceutical compositions” (priority 1978, dated 1980)

Assays:
Format in all cases: in vivo
monoamine oxidase enzyme [1] = molecular target: T1, monoamine oxidase enzyme (Mus musculus, UniProt Q8BW75); test: MAO inhibition in mouse brain slices after intraperitoneal injection: deamination of [3H]phenethylamine; details: for inhibition at 4 mg/kg: dose 4 mg/kg intraperitoneal; for inhibition at 29 mg/kg: dose 29 mg/kg intraperitoneal; for ED50: effective dose for 50 % inhibition; for inhibition at 32 mg/kg: dose 32 mg/kg intraperitoneal
T1 construct: from tissue; host or cells: mouse brain slices (hypothalamus, thalamus, midbrain), ex vivo after i.p. dosing
T1 sequence (Q8BW75 1-520): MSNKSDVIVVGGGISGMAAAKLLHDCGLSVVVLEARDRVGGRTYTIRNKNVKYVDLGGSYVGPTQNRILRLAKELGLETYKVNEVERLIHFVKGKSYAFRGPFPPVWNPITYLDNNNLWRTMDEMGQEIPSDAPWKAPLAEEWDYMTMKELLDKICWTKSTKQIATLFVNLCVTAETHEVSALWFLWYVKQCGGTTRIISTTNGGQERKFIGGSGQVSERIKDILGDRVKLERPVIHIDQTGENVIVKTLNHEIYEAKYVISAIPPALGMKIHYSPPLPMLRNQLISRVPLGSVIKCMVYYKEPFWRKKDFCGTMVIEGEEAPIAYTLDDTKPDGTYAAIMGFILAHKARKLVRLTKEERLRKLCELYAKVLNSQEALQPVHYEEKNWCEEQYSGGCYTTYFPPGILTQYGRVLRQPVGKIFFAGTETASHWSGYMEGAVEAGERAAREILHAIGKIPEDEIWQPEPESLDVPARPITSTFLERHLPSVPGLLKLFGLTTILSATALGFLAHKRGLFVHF
Description: (§1) It is not possible by experimental means to induce depressions in laboratory animals. In order to evaluate a possible antidepressive effect of new substances biochemical-pharmacological test methods must be resorted to. One such method, which seems to give good indication of the potential antidepressive effects of the test substances, is a test for monoamine oxidase enzyme inhibiting activity. The deamination of [^3H]phenethylamine, [^3H]tyramine, and [^14C]-5-hydroxytryptamine by brain slices was determined according to the following method.
(§2) Slices (100 mg) of the central part of the mouse brain including hypothalamus, thalamus, and midbrain were incubated for 5 min with 1 x 10^-7 M of the labeled substrate in 2.0 ml of Krebs-Henseleit's buffer, pH 7.4, containing […] of glucose, The slices were then homogenized in an all-glass homogenizer with 1.0 ml of 1 N HCl containing carrier amounts ([…]) of the nonlabeled amine and its deaminated acid product. An aliquot of 1.1 ml of a brain homogenate in 10 vol of 1 N HCl containing the substrate and product carriers was added to 0.5 ml of the incubation medium. The brain homogenate was added in order to facilitate the extraction of tyramine and 5-HT. The acid and neutral products were extracted into 6.0 ml of ethyl acetate by vigorous shaking for 10 s. After centrifugation, 4.0 ml of the organic phase was taken for determination of radicactivity, The remaining ethyl acetate was removed; the water phase was made alkaline with solid sodium carbonate and 1.0 ml of 0.5 M borate buffer, pH 10. The amine was then extracted into 6.0 ml of ethyl acetate and 4.0 ml of the organic phase was taken for the assay. The deamination of [^3H]tyramine and [^14C]-5-HT was determined simultaneously by utilizing the double-labeling technique. (S.B. Ross, A.L. Renyi, and S.-O. Ögren, Eur. J. Pharmacol., 17, 107 (1972)).
[…] The inhibition was expressed in percent and calculated on the total formation of acid and neutral products formed in the brain slices of animals treated with the test compounds or with saline.

monoamine oxidase enzyme [2] = test: MAO inhibition in mouse brain slices after intraperitoneal injection: deamination of [3H]tyramine; details: for ED50: deamination of tyramine, effective dose for 50 % inhibition, 1 h after adm.; for inhibition of the MAO activity against tyramine (in words): mouse, in vivo
Description: as §1, §2
(§3) Inhibition of the MAO activity in the brain slices was determined 1 h after the intraperitoneal injection of the test compound. The inhibition was expressed in percent and calculated on the total formation of acid and neutral products formed in the brain slices of animals treated with the test compounds or with saline.

monoamine oxidase enzyme [3] = molecular target: T2, monoamine oxidase enzyme (Mus musculus, UniProt Q64133); test: MAO inhibition in mouse brain slices after intraperitoneal injection: deamination of [14C]-5-hydroxytryptamine; details: for inhibition of the MAO activity against 5-hydroxytryptamine (in words): in vivo; for ED50: effective dose for 50 % inhibition
T2 construct: from tissue; host or cells: mouse brain slices (hypothalamus, thalamus, midbrain), ex vivo after i.p. dosing
T2 sequence (Q64133 1-526): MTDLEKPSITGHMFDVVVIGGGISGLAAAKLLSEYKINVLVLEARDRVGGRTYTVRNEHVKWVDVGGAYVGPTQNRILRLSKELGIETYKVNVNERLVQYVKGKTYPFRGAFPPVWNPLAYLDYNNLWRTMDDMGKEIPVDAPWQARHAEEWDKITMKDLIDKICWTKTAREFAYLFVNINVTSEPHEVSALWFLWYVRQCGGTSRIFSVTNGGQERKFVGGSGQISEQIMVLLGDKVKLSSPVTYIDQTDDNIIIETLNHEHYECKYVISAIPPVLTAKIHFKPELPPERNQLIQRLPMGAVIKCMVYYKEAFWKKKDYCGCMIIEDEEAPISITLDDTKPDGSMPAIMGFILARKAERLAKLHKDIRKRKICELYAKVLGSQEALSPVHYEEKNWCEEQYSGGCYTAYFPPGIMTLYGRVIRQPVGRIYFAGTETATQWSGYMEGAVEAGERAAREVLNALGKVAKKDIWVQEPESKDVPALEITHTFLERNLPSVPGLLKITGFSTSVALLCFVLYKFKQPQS
Description: as §1, §2, §3

[4] = mouse, ip, deamination of phenethylamine, 1 h after adm.
[5] = mouse, ip, deamination of phenethylamine, 24 h after adm.
[6] = comparison of ACS 104 with ACS 64
[7] = mouse, ip, deamination of 5-hydroxytryptamine, 1 h after adm.

SMILES: C=C=C(CN)Cc1ccccc1.Cl [ACS 104, 2-benzyl-2,3-butadienamine hydrochloride]
- potency relative to the prior art compound, inhibition of the MAO activity against phenethylamine (monoamine oxidase enzyme [1]; comparison of ED50-values of ACS 104 and ACS 64): about three times as potent as the prior art compound
- inhibition at 1 mg/kg (monoamine oxidase enzyme [1]; mouse, ip, deamination of phenethylamine, dose 1 mg/kg intraperitoneal, 1 h after adm.): 19 ± 3%
- inhibition at 4 mg/kg (monoamine oxidase enzyme [1]; [4]): 67 ± 2%
- inhibition at 29 mg/kg (monoamine oxidase enzyme [1]; [4]): 92 ± 1%
- inhibition at 29 mg/kg (monoamine oxidase enzyme [1]; [5]): 39 ± 2%
- ED50 (monoamine oxidase enzyme [1]; [4]): 16 µmol/kg
- potency relative to the prior art compound, MAO activity against tyramine (monoamine oxidase enzyme [2]; [6]): somewhat, more potent than the prior art compound
- ED50 (monoamine oxidase enzyme [2]): <150 µmol/kg
- inhibition of the MAO activity against tyramine (in words) (monoamine oxidase enzyme [2]): only weak inhibitors
- potency relative to the prior art compound, MAO activity against 5-hydroxytryptamine (monoamine oxidase enzyme [3]; [6]): somewhat, more potent than the prior art compound
- inhibition of the MAO activity against 5-hydroxytryptamine (in words) (monoamine oxidase enzyme [3]; mouse): only weak inhibitors
- inhibition at 29 mg/kg (monoamine oxidase enzyme [3]; mouse, ip, deamination of 5-hydroxytryptamine, dose 29 mg/kg intraperitoneal, 1 h after adm.): 48 ± 2%
- ED50 (monoamine oxidase enzyme [3]; [7]): ~150 µmol/kg

SMILES: C=C=CCN(C)Cc1ccccc1.Cl [ACS 64, N-2,3-butadienyl--N-methylbenzylamine hydrochloride, reference compound]
- inhibition at 4 mg/kg (monoamine oxidase enzyme [1]; [4]): 31 ± 7%
- inhibition at 32 mg/kg (monoamine oxidase enzyme [1]; [4]): 86 ± 3%
- inhibition at 32 mg/kg (monoamine oxidase enzyme [1]; [5]): 70 ± 1%
- ED50 (monoamine oxidase enzyme [1]; [4]): 50 µmol/kg
- ED50 (monoamine oxidase enzyme [2]): >150 µmol/kg
- inhibition of the MAO activity against tyramine (in words) (monoamine oxidase enzyme [2]): only weak inhibitors
- inhibition of the MAO activity against 5-hydroxytryptamine (in words) (monoamine oxidase enzyme [3]; mouse): only weak inhibitors
- inhibition at 32 mg/kg (monoamine oxidase enzyme [3]; mouse, ip, deamination of 5-hydroxytryptamine, dose 32 mg/kg intraperitoneal, 1 h after adm.): 16 ± 2%
- ED50 (monoamine oxidase enzyme [3]; [7]): > 150 µmol/kg
